Laboratory results taken from the supplement of paper PMC10307832.

Legend:
Assay in all cases: relative viability (nuclei count vs DMSO), 5 days (fraction); higher = more cells survive
H3255 = tested on: H3255
Procedure, shortened: (§1)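 Relative viability is defined as nuclei in treated wells over nuclei in vehicle wells. Duplicate plates were run and medians reported. Lung cancer cell lines in 1536-well plates were dosed by pin tool one day after seeding, with one drug or with a fixed anchor-drug dose plus five library-drug doses (not always all listed) in √10 steps, and nuclei were counted after 5 days.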

NCI-H1734 = tested on: NCI-H1734
Procedure, shortened: as §1

NCI-H3122 = tested on: NCI-H3122
Procedure, shortened: as §1

NCI-H2085 = tested on: NCI-H2085
Procedure, shortened: as §1

NCI-H2023 = tested on: NCI-H2023
Procedure, shortened: as §1

NCI-H520 = tested on: NCI-H520
Procedure, shortened: as §1

NCI-H2347 = tested on: NCI-H2347
Procedure, shortened: as §1

LOU-NH91 = tested on: LOU-NH91
Procedure, shortened: as §1

NCI-H1993 = tested on: NCI-H1993
Procedure, shortened: as §1

EPLC-272H = tested on: EPLC-272H
Procedure, shortened: as §1

NCI-H2405 = tested on: NCI-H2405
Procedure, shortened: as §1

RERF-LC-KJ = tested on: RERF-LC-KJ
Procedure, shortened: as §1

HCC-44 = tested on: HCC-44
Procedure, shortened: as §1

PC-14 = tested on: PC-14
Procedure, shortened: as §1

NCI-H1650 = tested on: NCI-H1650
Procedure, shortened: as §1

COR-L23 = tested on: COR-L23
Procedure, shortened: as §1

NCI-H647 = tested on: NCI-H647
Procedure, shortened: as §1

201T = tested on: 201T
Procedure, shortened: as §1

NCI-H1563 = tested on: NCI-H1563
Procedure, shortened: as §1

NCI-H441 = tested on: NCI-H441
Procedure, shortened: as §1

Molecule Oc1nc(-c2ccc(C(F)(F)F)cc2)nc2c1CSCC2 [XAV939] + CC(C)C[C@H](NC(=O)[C@H](Cc1ccccc1)NC(=O)c1cnccn1)B(O)O [Bortezomib] (partner 0.002 µM) has a relative viability (H3255; first compound 0.08 µM) of 1.05, a relative viability (H3255; first compound 0.253 µM) of 0.716 and a relative viability (H3255; first compound 0.8 µM) of 0.62. The relative viability (H3255; first compound 2.53 µM) was 0.853, the relative viability (NCI-H1734; first compound 0.08 µM) was 1.04 and the relative viability (NCI-H1734; first compound 0.253 µM) was 0.907. It also gave a relative viability (NCI-H1734; first compound 0.8 µM) of 0.709, a relative viability (NCI-H1734; first compound 2.53 µM) of 0.86 and a relative viability (NCI-H3122; first compound 0.08 µM) of 1.09. The relative viability (NCI-H3122; first compound 0.253 µM) was 1.01, the relative viability (NCI-H3122; first compound 0.8 µM) was 1.03 and the relative viability (NCI-H3122; first compound 2.53 µM) was 0.944. It also gave a relative viability (NCI-H2085; first compound 0.08 µM) of 1.02, a relative viability (NCI-H2085; first compound 0.253 µM) of 1.03 and a relative viability (NCI-H2085; first compound 0.8 µM) of 0.975. For the same molecule, the relative viability (NCI-H2085; first compound 2.53 µM) was 0.992, the relative viability (NCI-H2023; first compound 0.08 µM) was 1.11 and the relative viability (NCI-H2023; first compound 0.253 µM) was 0.785. It also gave a relative viability (NCI-H2023; first compound 0.8 µM) of 0.833, a relative viability (NCI-H2023; first compound 2.53 µM) of 0.792 and a relative viability (NCI-H520; first compound 0.08 µM) of 0.612. For the same molecule, the relative viability (NCI-H520; first compound 0.253 µM) was 0.317, the relative viability (NCI-H520; first compound 0.8 µM) was 0.659 and the relative viability (NCI-H520; first compound 2.53 µM) was 0.368. The relative viability (NCI-H2347; first compound 0.08 µM) was 1.27, the relative viability (NCI-H2347; first compound 0.253 µM) was 0.75 and the relative viability (NCI-H2347; first compound 0.8 µM) was 1.02. It also gave a relative viability (NCI-H2347; first compound 2.53 µM) of 0.837, a relative viability (LOU-NH91; first compound 0.08 µM) of 0.438 and a relative viability (LOU-NH91; first compound 0.253 µM) of 0.464. For the same molecule, the relative viability (LOU-NH91; first compound 0.8 µM) was 0.49, the relative viability (LOU-NH91; first compound 2.53 µM) was 0.415 and the relative viability (NCI-H1993; first compound 0.8 µM) was 0.972. It also gave a relative viability (NCI-H1993; first compound 2.53 µM) of 0.891, a relative viability (EPLC-272H; first compound 0.08 µM) of 1.05 and a relative viability (EPLC-272H; first compound 0.253 µM) of 0.816. It also gave a relative viability (EPLC-272H; first compound 0.8 µM) of 1.02, a relative viability (EPLC-272H; first compound 2.53 µM) of 0.91 and a relative viability (NCI-H2405; first compound 0.08 µM) of 1.04. For the same molecule, the relative viability (NCI-H2405; first compound 0.253 µM) was 0.719, the relative viability (NCI-H2405; first compound 0.8 µM) was 0.893 and the relative viability (NCI-H2405; first compound 2.53 µM) was 0.959. It also gave a relative viability (RERF-LC-KJ; first compound 0.08 µM) of 0.864, a relative viability (RERF-LC-KJ; first compound 0.253 µM) of 0.98 and a relative viability (RERF-LC-KJ; first compound 0.8 µM) of 0.886. It also gave a relative viability (RERF-LC-KJ; first compound 2.53 µM) of 0.744, a relative viability (HCC-44; first compound 0.08 µM) of 0.909 and a relative viability (HCC-44; first compound 0.253 µM) of 0.809. It also gave a relative viability (HCC-44; first compound 0.8 µM) of 0.854, a relative viability (HCC-44; first compound 2.53 µM) of 0.824 and a relative viability (PC-14; first compound 0.08 µM) of 0.825. For the same molecule, the relative viability (PC-14; first compound 0.253 µM) was 0.808, the relative viability (PC-14; first compound 0.8 µM) was 0.846 and the relative viability (PC-14; first compound 2.53 µM) was 0.794. The relative viability (NCI-H1650; first compound 0.08 µM) was 0.178, the relative viability (NCI-H1650; first compound 0.253 µM) was 0.211 and the relative viability (NCI-H1650; first compound 0.8 µM) was 0.222. For the same molecule, the relative viability (NCI-H1650; first compound 2.53 µM) was 0.215, the relative viability (COR-L23; first compound 0.08 µM) was 1.03 and the relative viability (COR-L23; first compound 0.253 µM) was 0.994. The relative viability (COR-L23; first compound 0.8 µM) was 1.05, the relative viability (COR-L23; first compound 2.53 µM) was 0.855 and the relative viability (NCI-H647; first compound 0.08 µM) was 1.16. It also gave a relative viability (NCI-H647; first compound 0.253 µM) of 0.747, a relative viability (NCI-H647; first compound 0.8 µM) of 0.81 and a relative viability (NCI-H647; first compound 2.53 µM) of 0.988. For the same molecule, the relative viability (201T; first compound 0.08 µM) was 1.12, the relative viability (201T; first compound 0.253 µM) was 0.981 and the relative viability (201T; first compound 0.8 µM) was 1.08. It also gave a relative viability (201T; first compound 2.53 µM) of 0.979, a relative viability (NCI-H1563; first compound 0.08 µM) of 0.835 and a relative viability (NCI-H1563; first compound 0.253 µM) of 0.81. For the same molecule, the relative viability (NCI-H1563; first compound 0.8 µM) was 0.798, the relative viability (NCI-H1563; first compound 2.53 µM) was 0.764 and the relative viability (NCI-H441; first compound 0.08 µM) was 0.45. The relative viability (NCI-H441; first compound 0.253 µM) was 0.401, the relative viability (NCI-H441; first compound 0.8 µM) was 0.572 and the relative viability (NCI-H441; first compound 2.53 µM) was 0.681.
